Data on five substances can be found in US11286288B2, “Pharmaceutical compound” (VALLAURIX PTE. LTD., priority 2015, dated 2022).

What all share (format): cell-based
In one test the test system is tyrosinase. The test can be described thus: Tyrosinase activity (3H-tyrosine) in human melanocyte culture 1750. To be noted: Test 4, melanocytes 1750, six days treatment; concentration not given. As to the method: Compounds 1, 2, 3 and 4 were tested in various separate tests and using 2 different human melanocyte cultures, coded 1750 and 1753, that were derived from 2 different donors expressing functional MC1R. The melanocytes were plated at a density of 0.3*10^6 cells onto 60 mm dishes (triplicate dishes/group). After 48 hours, the melanocytes were treated every other day for a total of six days with different doses of each compound. Controls without compound were included in all experiments. In some experiments reference compound NDP-MSH was included. On treatment day 5, ^3H-labeled tyrosine, the substrate for tyrosinase, was added and 24 hours later, the supernatant was saved to be assayed for tyrosinase activity as described by Suzuki et al (see example 3). Duplicate samples from each were assayed, with triplicate dishes included in each group. Cell number in each dish was counted, and tyrosinase activity was expressed as dpm/10^6 cells and as % of the control. Tests results between separate tests cannot be compared due to differences in melanocyte cultures and to different passage number. Statistical analysis was carried out using ANOVA followed by Newman Kuels test.
It will be understood that this tyrosinase activation test relates to a late event after MC1R activation, compared to the earlier secondary messenger effect of the above cAMP test. As pointed out above, activity of tyrosinase requires days of treatment. Following are the results comparing the compounds in the test indicated: […]

For test [1], the target named is T1, MC1R (Homo sapiens, UniProt Q01726).
T1 construct: human melanocyte cultures, coded 1750 and 1753, that were derived from 2 different donors expressing functional MC1R; endogenous in cells; host or cells: primary human melanocyte cultures 1750 and 1753 (two donors)
T1 sequence (Q01726 whole entry): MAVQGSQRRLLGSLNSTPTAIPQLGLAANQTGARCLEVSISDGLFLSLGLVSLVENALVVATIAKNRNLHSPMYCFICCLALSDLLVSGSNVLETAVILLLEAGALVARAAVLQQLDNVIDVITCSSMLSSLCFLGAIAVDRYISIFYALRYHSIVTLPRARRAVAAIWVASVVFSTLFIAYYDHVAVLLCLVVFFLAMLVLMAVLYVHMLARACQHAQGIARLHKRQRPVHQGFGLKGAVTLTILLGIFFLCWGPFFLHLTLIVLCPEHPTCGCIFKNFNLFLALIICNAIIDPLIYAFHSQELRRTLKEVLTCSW
The test can be described thus: cAMP radioimmunoassay in human melanocyte culture 1753. As to the method: Compounds 1, 2, 3 and 4 were tested in various separate tests and using 2 different human melanocyte cultures, coded 1750 and 1753, that were derived from 2 different donors expressing functional MC1R. The melanocytes were plated at a density of 0.3*10^6 cells/well. After 48 hours, the melanocytes were treated with the different compound concentrations for 1 hour. Controls without compound were included in all experiments. […] The reaction was stopped by addition of 50 μl N HCl and the supernatant in each well was used to measure cAMP using a radioimmunoassay as described by Suzuki 1996 (Suzuki I, Cone R D, Im S, Nordlund ii, Abdel-Malek Z: “Binding of melanotropic hormones to the MC1 receptor on human melanocytes stimulates proliferation and melanogenesis”. Endocrinology 137: 1627-1633, 1996). Duplicate samples from each well were assayed with triplicate wells included in each compound group. The results from different tests cannot be compared due to differences in melanocyte cultures and to different passage number. The mean of 6 cAMP measurements per group was expressed as % of the control group. Statistical analysis was carried out using ANOVA followed by Newman Kuels test. In some cases, unpaired t-test was used.

For test [2], the target named is T1, MC1R. The test can be described thus: cAMP radioimmunoassay in human melanocyte culture 1750. As to the method: Compounds 1, 2, 3 and 4 were tested in various separate tests and using 2 different human melanocyte cultures, coded 1750 and 1753, that were derived from 2 different donors expressing functional MC1R. The melanocytes were plated at a density of 0.3*10^6 cells/well. After 48 hours, the melanocytes were treated with the different compound concentrations for 1 hour. Controls without compound were included in all experiments. In some experiments reference compound NDP-MSH was included. The reaction was stopped by addition of 50 μl N HCl and the supernatant in each well was used to measure cAMP using a radioimmunoassay as described by Suzuki 1996 (Suzuki I, Cone R D, Im S, Nordlund ii, Abdel-Malek Z: “Binding of melanotropic hormones to the MC1 receptor on human melanocytes stimulates proliferation and melanogenesis”. Endocrinology 137: 1627-1633, 1996). Duplicate samples from each well were assayed with triplicate wells included in each compound group. The results from different tests cannot be compared due to differences in melanocyte cultures and to different passage number. The mean of 6 cAMP measurements per group was expressed as % of the control group. Statistical analysis was carried out using ANOVA followed by Newman Kuels test. In some cases, unpaired t-test was used.

For the substance “(C2H5)3N—CH2—CO-Nle-Glu-His-D-Phe-Arg-Trp-NH2 [Compound 1]”, in the test on tyrosinase, the “tyrosinase activity, efficacy, % of the control” value (“tyrosinase activity, efficacy, %” for short) was 178%. Moreover, the “cAMP, highest overall efficacy value, % of the control group” value on MC1R [1] (Test 2, melanocytes 1753, at 10^-7 M, 1 hour treatment, p<0.05) worked out at 431%.
Consider NDP-MSH [reference compound], for which the “tyrosinase activity, efficacy, %” value in the test on tyrosinase stood at 166%.
For the substance “(CH3)3N—(CH2)3—CO-Nle-Glu-His-D-Phe-Arg-Trp-NH2 [Compound 2]”, the “dose at which maximum effect on cAMP (vs control) was achieved” value on MC1R [2] (Test 1, melanocytes 1750, 1 hour treatment, p<0.05 vs control) was 10^−8 M. The “tyrosinase activity, efficacy, %” value with tyrosinase is 171%. Moreover, the “lowest dose showing cAMP efficacy statistically different from control” value on MC1R [1] (Test 2, melanocytes 1753, p<0.05) was 10^−11 M.
Turning to “(C2H5)3N—CH2—CO-Nle-Glu-His-D-Phe-homoArg-Trp-NH2 [Compound 3]”, the “cAMP, highest overall efficacy value, % of the control group” value at MC1R [2] (Test 1, melanocytes 1750, at 10^-7 M, 1 hour treatment, p<0.05) came out at 327%. On MC1R [1] (Test 2, melanocytes 1753, p<0.05 vs control), the “dose at which maximum effect on cAMP was achieved” value is reported as 10^−9 M.
For “(CH3)3N—(CH2)3—CO-Nle-Glu-His-D-Phe-homoArg-Trp-NH2 [Compound 4]”, at MC1R [1] (Test 3, melanocytes 1753, at 10^-7 M, 1 hour treatment, p<0.05), the “cAMP, highest efficacy, % of the control group” value amounted to 253%.
